These results are taken from US20100120662A1, “Glucose uptake modulator and method for treating diabetes or diabetic complications” (POSTECH Foundation, priority 2005, published 2010).

Ends that are not written are not given here.

The subject of one test is 3T3-L1 adipocytes. In words: [14C] 2-deoxy-D-glucose uptake in 3T3-L1 adipocytes. It counts as cell-based. The settings on record: for effect of pretreatment on LPC-stimulated glucose uptake: then 20 μM LPC 10 min; for stimulation of glucose uptake: equimolar 20 μM, 10 min; for time and dose dependence of glucose uptake: various concentrations. The method, then:
Cell culture: 3T3-L1 fibroblasts were grown to confluence in DMEM containing a high glucose concentration, 10% fetal bovine serum, 50 U of penicillin per ml, and 50 ug of streptomycin per ml and maintained in a 5% CO2 humidified atmosphere at 37° C. 3T3-L1 was induced to differentiate into adipocytes, as described previously (van den Berghe, N., et al., Mol Cell Biol 14, pp. 2372-2377, 1994).
Glucose uptake measurement. For measuring glucose uptake in 3T3-L1 adipocytes, cells were grown in serum-free DMEM for 16 h and then incubated in the absence or presence of insulin or lysophospholipids for the indicated times at 37° C. Uptake was measured by adding 1 μCi of [^14C] 2-deoxy-D-glucose and 3 mM 2-deoxy-D-glucose. After 10 min, the assay was terminated by two quick washes with ice-cold PBS. Cells were lysed in 0:5 ml of lysis buffer containing 0.5 N NaOH and 0.1% SDS. The cell lysates were used for liquid scintillation counting and nonspecific uptake was assayed in the presence of 10 μM cytochalasin B (van den Berghe, N., et al., Mol Cell Biol 14, pp. 2372-2377, 1994).
FIG. 2A to 2D show the effects of LPC on the glucose uptake in 3T3-L1 adipocytes. […] After these treatments, [^14C] 2-deoxy-D-glucose uptake was measured for 10 min as described in Material Methods. […] FIGS. 2C and 2D show relative [^14C] 2-deoxy-D-glucose uptake in 3T3-L1 adipocytes incubated in the absence (control) or presence of equimolar concentrations (20 μM) of myristoyl lysophosphatidylcholine (14:0 LPC), palmytoyl lysophosphatidylcholine (16:0 LPC), stearoyl lysophosphatidylcholine (18:0 LPC), palmytoyl lysophsophatidylethanolamine (16:0 LPE), palmytoyl lyso-phosphatidylinositol (16:0 LPI), palmytoyl lysophosphatidylglycerol (16:0 LPG) for 10 min. Values are mean±SE of three independent experiments performed in triplicate. *P<0.05 vs. basal.

Test [1] has as its system male ICR mice. The test is described as follows: Acute blood glucose lowering in normal ICR mice after intravenous lysophospholipid. It counts as in vivo, mouse. Particulars: for level of blood glucose in normal mice: intravenous, 0 to 120 min after dosing.
Another test has as its system IRS1 and AKT. The test is described as follows: IRS1 and AKT phosphorylation in 3T3-L1 adipocytes (immunoblot). It counts as cell-based. The settings on record: LPA treatment of 3T3-L1 adipocytes. As for the experimental part: Immunoblotting. For preparing total cell lysates, 3T3-L1 adipocytes were washed with Ca^2+/Mg^2+-free PBS and then lysed in the lysis buffer (50 mM HEPES, pH 7.2, 150 mM NaCl, 50 mM NaF, 1 mM Na3VO4, 10% glycerol, 1% Triton X-100). The lysates were centrifuged at 15,000 rpm for 15 min at 4° C. The proteins were denatured by boiling in laemmli sample buffer for 5 min at 95° C., separated by SDS-PAGE. SDS-gel was transferred to nitrocellulose membrane using Hoefer wet transfer system. Membranes were blocked in TTBS (20 mM Tris-HCl, pH 7.6, 150 mM NaCl, 0.05% Tween 20) containing 5% skimmed milk powder for 30 min and then incubated with antibodies for 3 hours. After washing membranes several times with TTBS, the blots were incubated with HRP (Horseradish peroxidase)-conjugated goat anti-rabbit for 1 hour. The blots were washed with TTBS and developed by ECL.

Test [2] relates to male ICR mice. The test is described as follows: Serum insulin level in mice after single intravenous injection. It counts as in vivo, mouse. As for the experimental part:
(§1) Animals. Male ICR mice were purchased from hyochang science (ROK). C57BLKSJ-db/db mice were purchased from SLC (Japan). After intravenous injection of LPC, blood glucose was measured regularly with a portable glucose meter (Gluco-Dr, ROK) after tail snipping. For measurement of serum insulin, blood samples of mice were determined with the insulin-RIA Kit (LINCO, Missouri). Insulin deficient mice were induced in male ICR mice by two consecutive daily intraperitoneal injection of STZ (200 mg/kg) dissolved in sodium citrate (pH 5.5). On the third day after the last STZ injection, acute glucose lowering effect was analyzed after intravenous injection of vehicle, LPC or insulin as described above.
(§2) Eight-week-old male mice were intravenously injected with PBS, insulin, LPC, or LPE. Blood glucose was monitored after dosing (0 to 120 min). […] All animals had free access to water. Animal care was in accordance with institutional guidelines. All data are shown as means±SE (n=5-6).*P<0.05.

For test [3], the system named is STZ-treated insulin deficient ICR male mice. The test is described as follows: Acute glucose lowering in streptozotocin (STZ)-treated insulin deficient ICR mice. It counts as in vivo, mouse. Particulars: LPS injected, dose not given. The method, then: as §1, §2
For another test, the system named is insulin receptor (IR). In words: IR autophosphorylation in hIRcB cells. It counts as cell-based, human. Particulars: hIRcB cells. The method, then:
FIG. 12A shown a comparison of insulin sensitizing effect among CRF family which was obtained by incubating cells with 1 μM CRF family and/or 2 nM insulin or with medium alone for 1 min. […] FIG. 12B was obtained by incubating cells with 2 nM insulin and variant dose of UCN (from 2 nM to 1 μM) for 1 min. FIG. 12C was obtained by incubating cells 100 nM UCN and variant dose of insulin for 1 min. Phosphorlyation of IR was assessed by western blotting with anti-pTyr antibodies. FIG. 13D was obtained by incubating cells with 100 nM UCN and/or 10 nM insulin for 0, 2, 10, 30, and 60 min, and then assessing the phosphorlyation of IR by western blotting with anti-pIR antibodies. Quantization of IR autophosphorylation was measured with image gauge software (Fuji film). The values are the mean±S.E. for three experiments. *, P<0.05
hIRcB cells were maintained in DMEM, supplemented with 10% (v/v) FBS. The cells were grown at 37° C. in a humidified atmosphere of 5% CO2 and 95% air.
After treatment of ligands as indicated time and dose, the cells were washed with cold PBS and lysed with lysis buffer (50 mM HEPES pH 7.5, 150 mM NaCl, 1%
Triton X-100, 1 mM EDTA, 10% glycerol) containing protease inhibitors (0.5 mM PMSF, 1 μg/ml leupeptin and 5 μg/ml aprotinin) and phosphatase inhibitors (30 mM NaF, 1 mM Na3VO4 and 30 mM Na4O7P2). The cell lysates were incubated for 1 hr at 4° C. After centrifugation (14,000×g for 15 min), equal amounts of soluble extract were incubated, for 4 hrs, with 5 μg of anti-IR antibody and 30 μl of resin volume of immobilized protein A. For gel electrophoresis, the precipitates were dissolved in Laemmli sample buffer. The sample was separated by SDS-PAGE and transferred to a nitrocellulose membrane (Schleicher and Schuell, BA85). Blocking was performed with TTBS buffer (10 mM Tris/HCl, pH 7.5, 150 mM NaCl, and 0.05% Tween 20) containing 5% skimmed milk powder. The membrane was probed with primary for 3 hrs at room temperature. Subsequently the immunoblot was washed and incubated with horseradish peroxidase-linked secondary antibody for 1 hr at room temperature, rinsed four times in TTBS buffer, and developed with horseradish peroxidase-dependent chemiluminescence reagents (Amersham International, United Kingdom).

The mark [4] stands for this setting: 3T3-L1 adipocytes, 10 min incubation.

Take `CC(=O)c1c(O)c(C)c(O)c(Cc2c(O)c3c(c(C(=O)/C=C/c4ccccc4)c2O)OC(C)(C)C=C3)c1O` [rottlerin, reference compound]: the “effect of pretreatment on LPC-stimulated glucose uptake” value with 3T3-L1 adipocytes (10 μM rottlerin for 30 min) is reported as “completely inhibited”.
With `Cc1noc(-c2ccc(CSCCC(=O)O)cc2)c1NC(=O)OC(C)c1ccccc1Cl` (centres unmarked) [Ki16425, reference compound], the “effect of pretreatment on LPA-stimulated glucose uptake” value with 3T3-L1 adipocytes (Ki16425 (LPA receptor antagonist) pretreatment) is listed as “completely inhibited”. Besides, in the test on male ICR mice [1] (Ki16425 injected prior to administration of LPA), the “effect on the glucose lowering effect by LPA” value is recorded as “inhibited”.
As to `CCCCCCCCCCCCCC(=O)OCC(O)COP(=O)([O-])OCC[N+](C)(C)C` (centres unmarked) [myristoyl LPC, myristoyl lysophosphatidylcholine], the “stimulation of glucose uptake” value in the test with 3T3-L1 adipocytes is “stimulated glucose uptake”.
Turning to `CCCCCCCCCCCCCCCC(=O)OC[C@@H](O)COP(=O)(O)OCCN` [palmytoyl LPE, palmytoyl lysophsophatidylethanolamine], in the test with 3T3-L1 adipocytes, the “stimulation of glucose uptake” value is “did not stimulate glucose uptake”. Further, the “level of blood glucose in normal mice” value with male ICR mice [1] (LPA study (FIG. 11A, 11B)) is recorded as “did not lower the blood glucose level in normal mice”; with male ICR mice [1] (LPS study (FIG. 7A, 7B)), “did not lower the blood glucose level in normal mice”.
lysophosphatidic acid [LPA]: the “incubation time at which glucose uptake was maximally increased” value in the test with 3T3-L1 adipocytes (20 μM, 0 to 20 min) is reported as 10 min. Besides, in the test on 3T3-L1 adipocytes (setting [4]), the “concentration of initial statistically significant effect on glucose uptake” value was 1 µM and the “concentration of maximal effect on glucose uptake” value amounted to 20 µM. The “time and dose dependence of glucose uptake” value in the test with 3T3-L1 adipocytes (3T3-L1 adipocytes) is “time- and dose-dependent increase in glucose uptake”. Moreover, the “Gαi dependence of glucose uptake stimulation” value in the test with 3T3-L1 adipocytes (Gαi inhibitor pertussis toxin) is given as “stimulates glucose uptake via to Gαi activation”. Besides, the “PI3-kinase dependence of glucose uptake stimulation” value with 3T3-L1 adipocytes (LY294002 pretreatment) is listed as “dependent on PI3-kinase activation”. In addition, in the test with IRS1 and AKT, the Akt phosphorylation result is “stimulated Akt phosphorylation”. Moreover, in the test with male ICR mice [2], the “change in blood insulin levels” value is recorded as “not due to changes in blood insulin levels”. In addition, in the test on male ICR mice [1] (LPA study (FIG. 11A, 11B)), the “level of blood glucose in normal mice” value is reported as “lowered the level of blood glucose in normal mice dose-dependently”.
Consider `CCCCCCCCCCCCCCCCCC(=O)OCC(O)COP(=O)([O-])OCC[N+](C)(C)C` (centres unmarked) [stearoyl LPC, stearoyl lysophosphatidylcholine, reference compound], for which the “stimulation of glucose uptake” value with 3T3-L1 adipocytes is recorded as “did not stimulate glucose uptake”.
lysophosphatidylserine [LPS]: the “time and dose dependence of glucose uptake” value in the test with 3T3-L1 adipocytes (3T3-L1 adipocytes) is given as “stimulate glucose uptake with dose dependent manner”. The “stimulation of glucose uptake” value with 3T3-L1 adipocytes is “specifically stimulated glucose uptake”. Besides, the “change in blood insulin levels” value with male ICR mice [2] is reported as “not due to changes in blood insulin levels”. In addition, the “blood glucose concentrations in STZ-treated insulin deficient mice” value in test [3] is recorded as “significantly reduced blood glucose concentrations”. The “level of blood glucose in normal mice” value in the test on male ICR mice [1] (LPS study (FIG. 7A, 7B)) is “lowered the level of blood glucose in normal mice dose-dependently”.
Consider “CRF: Corticotrophin releasing factor (CRF), synthesized from Anygen (SEEPPISLDLTFHLLREVLEMARAEQLAQQAHSNRKLMEII; ends and bridges not checked; UniProt P06850 154-194, looked up) [reference compound]”, for which the “insulin-mediated IR phosphorylation” value with insulin receptor (IR) (1 μM CRF family peptide with 2 nM insulin, 1 min) is on record as “potentate insulin-mediated IR phosphorylation”. Besides, in the test on insulin receptor (IR) (without insulin), the “IR phosphorylation by peptide alone” value is on record as “no effect on IR phosphorylation”.
As for `CCCCCCCCCCCCCCCC(=O)OC[C@@H](O)COP(=O)(O)OCC(O)CO` (some centres unmarked) [palmytoyl LPG, palmytoyl lysophosphatidylglycerol, reference compound], the “stimulation of glucose uptake” value in the test with 3T3-L1 adipocytes was “did not stimulate glucose uptake”.
Still for that read-out and setting: in the case of `CCCCCCCCCCCCCCCC(=O)OCC(O)COP(=O)(O)OC1C(O)C(O)C(O)C(O)C1O` (centres unmarked) [palmytoyl LPI, palmytoyl lyso-phosphatidylinositol, reference compound] it was “did not stimulate glucose uptake”.
As to `CCCCCCCCCCCCC/C=C/[C@@H](O)[C@@H](N)COP(=O)(O)O` [S1P], the “level of blood glucose in normal mice” value is reported as “did not lower the blood glucose level in normal mice” in the test with male ICR mice [1] (LPA study (FIG. 11A, 11B)) and “did not lower the blood glucose level in normal mice” in the test on male ICR mice [1] (LPS study (FIG. 7A, 7B)).
For `Cn1c2ccccc2c2c3c(c4c5ccccc5n(CCC#N)c4c21)CNC3=O` [Gö6976, reference compound], the “effect of pretreatment on LPC-stimulated glucose uptake” value in the test on 3T3-L1 adipocytes (2 μM Gö6976 for 30 min) was “did not alter LPC stimulation of glucose uptake”.
